In the supplement of paper PMC10307832:

Experiments:
Assay in all cases: relative viability (nuclei count vs DMSO), 5 days (fraction); higher = more cells survive
[1] = compound: O=C(C[C@H]1NCCC[C@@H]1O)Cn1cnc2cc(Br)c(Cl)cc2c1=O (racemic) [Halofuginone] + Cc1cc(Nc2cc(N3CCN(C)CC3)nc(Sc3ccc(NC(=O)C4CC4)cc3)n2)n[nH]1 [Tozasertib] (partner 0.1 µM)
Outline: (§1)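 Five library-drug doses in √10 steps were combined with a fixed anchor-drug dose, or a single drug was given alone, by pin tool to lung cancer cell lines in 1536-well plates the day after seeding. Nuclei were stained and counted after 5 days. Relative viability is the nuclei count in treated wells over that in vehicle wells, taken as the median of duplicate plates.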

[2] = compound: O=C(C[C@H]1NCCC[C@@H]1O)Cn1cnc2cc(Br)c(Cl)cc2c1=O (racemic) [Halofuginone] + COc1cccc2cc(-c3nc([C@H]4CC[C@H](C(=O)O)CC4)n4ncnc(N)c34)[nH]c12 [OSI-027] (partner 0.5 µM)
Outline: as §1

[3] = compound: O=C(C[C@H]1NCCC[C@@H]1O)Cn1cnc2cc(Br)c(Cl)cc2c1=O (racemic) [Halofuginone] + Nc1nc2[nH]cc(CCc3ccc(C(=O)N[C@@H](CCC(=O)O)C(=O)O)cc3)c2c(=O)[nH]1 [Pemetrexed] (partner 0.2 µM)
Outline: as §1

[4] = compound: Nc1ncn([C@H]2C[C@H](O)[C@@H](CO)O2)c(=O)n1 [Decitabine] + COc1cc2c(Oc3ccc(NC(=O)C4(C(=O)Nc5ccc(F)cc5)CC4)cc3F)ccnc2cc1OCCCN1CCOCC1 [Foretinib] (partner 0.25 µM)
Outline: as §1

Cell Line	relative viability ([1]; first compound 0.001 µM)	relative viability ([1]; first compound 0.003162 µM)	relative viability ([1]; first compound 0.01 µM)	relative viability ([1]; first compound 0.03162 µM)	relative viability ([1]; first compound 0.1 µM)	relative viability ([2]; first compound 0.001 µM)	relative viability ([2]; first compound 0.003162 µM)	relative viability ([2]; first compound 0.01 µM)	relative viability ([2]; first compound 0.03162 µM)	relative viability ([2]; first compound 0.1 µM)	relative viability ([3]; first compound 0.001 µM)	relative viability ([3]; first compound 0.003162 µM)	relative viability ([3]; first compound 0.01 µM)	relative viability ([3]; first compound 0.03162 µM)	relative viability ([3]; first compound 0.1 µM)	relative viability ([4]; first compound 0.04 µM)	relative viability ([4]; first compound 0.1265 µM)	relative viability ([4]; first compound 0.4 µM)	relative viability ([4]; first compound 1.265 µM)	relative viability ([4]; first compound 4 µM)
PC-3 [JPC-3]	0.863	0.872	0.863	0.874	0.856	0.798	0.804	0.75	0.76	0.736	1.1	1.12	0.983	1.21	0.854	0.833	0.71	0.588	0.54	0.472
HCC-44	1.16	0.994	1	0.824	0.17	0.505	0.613	0.444	0.379	0.202	0.697	0.654	0.619	0.622	0.621	–	–	–	–	–
NCI-H2405	0.906	0.776	0.682	0.775	0.64	0.71	0.656	0.638	0.619	0.577	1.14	1.07	0.978	0.989	0.638	0.957	0.918	0.863	0.628	0.462
LXF-289	0.196	0.199	0.245	0.173	0.178	0.762	0.885	0.819	0.785	0.542	0.913	0.972	0.849	0.864	0.788	0.713	0.541	0.399	0.289	0.269
LOU-NH91	0.7	0.791	0.642	0.705	0.576	0.733	0.732	0.748	0.741	0.692	0.405	0.391	0.425	0.4	0.403	0.56	0.913	0.726	0.739	0.756
A549	–	–	–	–	–	–	–	–	–	–	–	–	–	–	–	0.719	0.634	0.448	0.143	0.0978
H3255	0.709	0.524	0.723	0.67	0.618	0.598	0.55	0.602	0.601	0.553	0.585	0.587	0.565	0.57	0.567	–	0.652	0.484	0.587	0.513
NCI-H1395	0.893	0.72	0.797	0.769	0.656	0.665	0.656	0.789	0.594	0.683	0.873	0.822	0.991	0.696	0.571	0.798	0.801	0.687	0.586	0.55
LC-2-ad	0.476	0.508	0.422	0.351	0.225	0.903	0.888	0.746	0.889	0.608	0.273	0.305	0.251	0.246	0.269	0.68	0.889	0.794	0.557	0.516
NCI-H838	0.257	0.315	0.256	0.214	0.212	0.39	0.414	0.413	0.339	0.16	0.266	0.256	0.249	0.189	0.128	0.716	0.492	0.357	0.387	0.301
Calu-6	–	–	–	–	–	–	–	–	–	–	–	–	–	–	–	0.698	0.525	0.275	0.243	0.217
NCI-H1648	0.763	0.526	0.643	0.44	0.4	0.247	0.217	0.242	0.275	0.262	0.666	0.732	0.92	0.796	0.91	–	–	–	–	–
LCLC-97TM1	0.265	0.247	0.203	0.243	0.208	0.674	0.612	0.597	0.566	0.358	0.183	0.156	0.189	0.16	0.153	0.583	0.728	0.418	0.256	0.177
HCC-15	0.47	0.461	0.394	0.43	0.239	0.709	0.667	0.644	0.709	0.509	0.214	0.248	0.226	0.231	0.235	0.939	0.957	0.542	0.56	0.434
CAL-12T	0.354	0.279	0.352	0.305	0.262	0.872	0.771	0.707	0.807	0.414	1.17	1.08	1.3	0.953	0.72	1.08	0.883	–	0.618	0.419
NCI-H727	0.706	0.778	0.578	0.615	0.33	0.6	0.572	0.713	0.709	0.411	–	–	–	–	–	0.669	0.675	0.651	0.775	0.483
ABC-1	0.141	0.142	0.162	0.189	0.158	0.413	0.454	0.504	0.601	0.417	–	–	–	–	–	0.979	0.912	0.763	0.839	0.67
NCI-H2023	0.46	0.294	0.399	0.178	0.134	0.488	0.421	0.36	0.3	0.0722	0.297	0.185	0.213	0.152	0.0841	0.649	0.617	0.369	0.265	0.189
